Data set [1] can be described thus: Stability in water judged by appearance of the preparation (clear/hazy).
A short description of data set [2]: Solubility in water and other solvents.

On to `CCCCCCCCCCCCCCCCCC[N+](C)(C)CCC[Si](OC)(OC)OC.[Cl-]` [none], for which the “Stability (appearance of the preparation)” value in data set [1] (initial pH 1.15, after 1 wk.) is “hazy”; in data set [1] (initial pH 2.0, after 1 mo.) it was “hazy”; in data set [1] (initial pH 2.0, after 1 wk.), “clear”; in data set [1] (initial pH 5.7, after 1 mo.), “hazy”; in data set [1] (initial pH 5.7, after 1 wk.), “clear”; in data set [1] (initial pH 6.5, after 1 mo.), “hazy”. Besides, the “Stability (appearance of the preparation)” value in data set [1] (initial pH 6.5, after 1 wk.) is given as “clear”; in data set [1] (initial pH 8.5, after 1 wk.), “hazy/gel”.
As for `CO[Si](CCCCl)(OC)OC` [Chloropropyl trimethoxysilane], the “Appearance after addition to water containing pentaerythritol” value in data set [2] (water containing pentaerythritol, after standing overnight) is “clear solution”. Besides, the Solubility in water result in data set [2] (water, no stabilizer) was “insoluble”.

Values taken from US6632805B1, “Methods for using water-stabilized organosilanes” (Emory University, priority 1996, dated 2003).
